From patent US20240293367A1, “METHODS OF TREATING DISORDERS WITH A […]” (Cybin IRL Limited, priority 2023, published 2024)

Test system: participants with MDD
Test: MADRS total score, response, remission and relapse in MDD participants (Phase I/IIa study)
Type: in vivo, human
Text: Cohorts 1, 4, 5, and 6 of the study was comprised of participants with MDD. Cohorts 2, 3, and the relative BA cohort of the study were comprised of normal healthy volunteers (NHV). […] MDD participants had been on a stable dose of antidepressant medication for at least one month prior to screening with an inadequate response to that antidepressant medication as judged by the Investigator, and continued to receive their prescribed antidepressant throughout the course of the study.
Cohorts 4 and 5. For Cohorts 4 and 5, 12 participants each (24 participants total) were randomized in a 3:1 ratio to receive 12 mg of psilocin-d10 or matched placebo in a single dosing session on Day 1. Following a 21-day interval, all participants received a dose of 12 mg psilocin-d10 on Day 22 (second dose for participants originally randomized to psilocin-d10, first dose for participants randomized to placebo), and were followed to Day 42.
Cohort 6. For Cohort 6, 12 participants were randomized in a 3:1 ratio to receive 16 mg of psilocin-d10 or matched placebo in a single dosing session on Day 1. Following a 21-day interval, all participants received a dose of 16 mg psilocin-d10 on Day 22 (second dose for participants originally randomized to psilocin-d10, first dose for participants randomized to placebo), and were followed to Day 42. Given the availability of data and considering that the secondary endpoint was a change in baseline to Day 21 in MADRS, efficacy data presented herein considers the data cut off of Day 21 postdose. One participant had to be withdrawn from the study due to pregnancy.
The primary efficacy endpoint defined in the statistical analysis plan (SAP) is the change from baseline to Day 21 of the total Montgomery-Åsberg Depression Rating Scale (MADRS) score compared to placebo, therefore efficacy data presented herein considers the data cut off of Day 21 postdose. Mean total score and change from baseline on Montgomery-Åsberg Depression Rating Scale (MADRS) on days 1, 10, 17, 22, 31, 38, and 42 are presented as secondary efficacy endpoints.
The secondary objective of the study was to evaluate the efficacy of psilocin-d10 in treating symptoms of MDD as measured by the change from baseline to Day 21 of the MADRS total score in the Intent-to-Treat population, with data analyzed according to the treatment group each participant was randomized to receive. Data from participants in Cohorts 4, 5, and 6 randomized to placebo was pooled for analysis purposes (N=9). Data from participants in Cohorts 4, 5, and 6 randomized to 12 mg or 16 mg psilocin-d10 (N=27) was also pooled for analysis.
Data from the study was also analyzed according to dosage level of psilocin-d10. Data from participants in Cohorts 4, 5, and 6 randomized to placebo was pooled for analysis purposes (N=9). Data from participants in Cohorts 4 and 5 (treated with 12 mg psilocin-d10) was also pooled for analysis (N=18).
The rates of remission, response, and relapse were also evaluated within the study. […] Additionally, 20.8% (5 out of 24) of participants in the psilocin-do group (12 mg and 16 mg combined) were in remission (remitters) (defined as a MADRS score of ≤10) compared to 0% for placebo at Day 21. The same 5 participants who were in remission were also classified as responders. None of the participants relapsed at Day 21 compared to baseline.
The MADRS is a 10-item scale with ratings based on a clinical interview which moves from broadly phrased questions about symptoms to more detailed ones allowing a precise rating of severity. A rating scale from 0 to 6 is employed and the rater must decide whether the rating lies on defined scale steps (0, 2, 4, 6) or between them (1, 3, 5). The MADRS can be used for any time interval between ratings, be it weekly or otherwise, and the time interval should be recorded. […]

[1] = Day 21, 12 mg single dose, Cohorts 4 and 5
[2] = Day 21, 16 mg single dose, Cohort 6
[3] = Day 21, single dose, 12 and 16 mg pooled

[2H]C([2H])([2H])N(C([2H])([2H])[2H])C([2H])([2H])C([2H])([2H])c1c[nH]c2cccc(O)c12 [psilocin-d10, 3-(2-(bis(methyl-d3)amino)ethyl-1,1,2,2-d4)-1H-indol-4-ol]
mean reduction in baseline MADRS (10 days post first dose, 12 mg and 16 mg pooled): 55%
reduction in baseline MADRS (10 days post second dose): 66%
MADRS change from baseline, LS Mean (Std Err) for Day 42 (ANOVA [2], Placebo/active group (one dose Day 22)): −16.48 (3.50)
MADRS change from baseline, LS Mean (Std Err) for Day 42 (ANOVA [2], two doses, 12 and 16 mg pooled): −21.04 (2.24)
MADRS change from baseline, LS Mean (Std Err) for Day 42 (ANOVA [3], within Placebo/active group): −16.54 (2.89)
MADRS change from baseline, LS Mean (ANOVA at Day 21, 12 mg): −16.70
MADRS change from baseline, LS Mean (ANOVA at Day 21, 16 mg): −15.61
MADRS change from baseline, LS Mean (ANOVA at Day 42 (by dosage level), Placebo/active group (one dose Day 22)): −16.48
MADRS change from baseline, LS Mean (ANOVA at Day 42, two 12 mg doses): −19.83
MADRS change from baseline, LS Mean (ANOVA at Day 42, two 16 mg doses): −23.41
MADRS change from baseline, LS Mean (Std Err) for Day 21 (ANOVA, 12 and 16 mg pooled): −16.33 (1.30)
MADRS mean total score (Day 10 after single dose (baseline 32.2)): 17.7
participants in remission (Day 21, 12 mg (3 out of 15)): 20%
participants with response (Day 21, 12 mg (8 out of 15)): 53.3%
participants in remission (MADRS ≤10) (Day 21, 12 mg and 16 mg combined (5 out of 24)): 20.8%
participants with response (≥50% reduction from baseline MADRS) (Day 21, 12 mg and 16 mg combined (12 out of 24)): 50%
MADRS total score, Change from Baseline, Mean [1]: −17.0
MADRS total score, Change from Baseline, Median [1]: −17.0
MADRS total score, Observed, Mean [1]: 15.9
MADRS total score, Observed, Median [1]: 14.0
participants in remission (Day 21, 16 mg (2 out of 9)): 22.2%
participants with response (Day 21, 16 mg (4 out of 9)): 44.4%
MADRS total score, Change from Baseline, Mean [2]: −14.9
MADRS total score, Change from Baseline, Median [2]: −17.0
MADRS total score, Observed, Mean [2]: 16.6
MADRS total score, Observed, Median [2]: 18.0
Relapse - No (Day 21, Cohort 4, 12 mg): 7 (100.0) n (%)
Relapse - Yes (Day 21, Cohort 4, 12 mg): 0 (0.0) n (%)
Remission (MADRS ≤10) - Yes (Day 21, Cohort 4, 12 mg): 2 (28.6) n (%)
Remission - No (Day 21, Cohort 4, 12 mg): 5 (71.4) n (%)
Response (≥50% reduction from baseline MADRS) - Yes (Day 21, Cohort 4, 12 mg): 4 (57.1) n (%)
Response - No (Day 21, Cohort 4, 12 mg): 3 (42.9) n (%)
Relapse - No (Day 21, Cohort 5, 12 mg): 8 (100.0) n (%)
Relapse - Yes (Day 21, Cohort 5, 12 mg): 0 (0.0) n (%)
Remission (MADRS ≤10) - Yes (Day 21, Cohort 5, 12 mg): 1 (12.5) n (%)
Remission - No (Day 21, Cohort 5, 12 mg): 7 (87.5) n (%)
Response (≥50% reduction from baseline MADRS) - Yes (Day 21, Cohort 5, 12 mg): 4 (50.0) n (%)
Response - No (Day 21, Cohort 5, 12 mg): 4 (50.0) n (%)
Relapse - No (Day 21, Cohort 6, 16 mg): 9 (100.0) n (%)
Relapse - Yes (Day 21, Cohort 6, 16 mg): 0 (0.0) n (%)
Remission (MADRS ≤10) - Yes (Day 21, Cohort 6, 16 mg): 2 (22.2) n (%)
Remission - No (Day 21, Cohort 6, 16 mg): 7 (77.8) n (%)
Response (≥50% reduction from baseline MADRS) - Yes (Day 21, Cohort 6, 16 mg): 4 (44.4) n (%)
Response - No (Day 21, Cohort 6, 16 mg): 5 (55.6) n (%)
Remission (MADRS ≤10) - Yes (Day 21, Cohorts 4, 5 and 6, pooled 12 mg and 16 mg): 5 (20.8) n (%)
Relapse - No (Day 21, Cohorts 4 and 5, 12 mg): 15 (100.0) n (%)
Relapse - Yes (Day 21, Cohorts 4 and 5, 12 mg): 0 (0.0) n (%)
Remission (MADRS ≤10) - Yes (Day 21, Cohorts 4 and 5, 12 mg): 3 (20.0) n (%)
Remission - No (Day 21, Cohorts 4 and 5, 12 mg): 12 (80.0) n (%)
Response (≥50% reduction from baseline MADRS) - Yes (Day 21, Cohorts 4 and 5, 12 mg): 8 (53.3) n (%)
Response - No (Day 21, Cohorts 4 and 5, 12 mg): 7 (46.7) n (%)
Relapse - No (Day 21, pooled 12 mg and 16 mg): 24 (100.0) n (%)
Relapse - Yes (Day 21, pooled 12 mg and 16 mg): 0 (0.0) n (%)
Remission - No (Day 21, pooled 12 mg and 16 mg): 19 (79.2) n (%)
Response (≥50% reduction from baseline MADRS) - Yes (Day 21, pooled 12 mg and 16 mg): 12 (50.0) n (%)
Response - No (Day 21, pooled 12 mg and 16 mg): 12 (50.0) n (%)
MADRS total score, Change from Baseline, Mean [3]: −16.2
MADRS total score, Change from Baseline, Median [3]: −17.0
MADRS total score, Observed, Mean [3]: 16.1
MADRS total score, Observed, Median [3]: 16.5
MADRS, Difference in LS Means, 12 mg compared to Cohort 6 (16 mg) (Day 21, 95% CI (−12.2, 10.1), P 0.8421): −1.09
MADRS, Difference in LS Means, 12 mg compared to placebo (Day 21, 95% CI (−20.5, −7.7), P 0.0001): −14.11
MADRS, Difference in LS Means, 16 mg compared to placebo (Day 21, 95% CI (−22.3, −3.7), P 0.0080): −12.99
mean decrease from baseline MADRS (Day 21 after single dose): 50%
MADRS mean total score (Day 31 (10 days post second dose)): 6.7
Relapse - No (Day 42, Cohort 4, two 12 mg doses): 7 (100.0) n (%)
